This experiment has as its system nasal mucosal permeability in actively sensitized and topically provoked brown Norway rats. Description: Rhinitis model: nasal mucosal permeability (Evans Blue plasma extravasation) after ovalbumin provocation. It counts as in vivo. The source says:
The following pharmacological investigation describes the action of azelastine and montelukast on their own and in combination on a rhinitis model on brown Norway rats. The brown Norway rats were actively sensitized by double i.p. injection of a suspension of ovalbumin and aluminum hydroxide in physiological saline solution on two successive days. Three weeks after sensitization, a catheter was tied into the trachea of the animals in orthograde manner under sodium thiopental anesthesia to maintain the respiration of the animals and a further catheter was advanced in a retrograde manner through the trachea up to the internal opening of the choanas for the perfusion of the nasal cavities and fixed. The nasal perfusate can thus trickle out through the nasal cavities and be accepted by a fraction collector. The test substances were either suspended in Tylose (montelukast) or dissolved in physiological saline solution (azelastine) and injected intraperitoneally 60 min before allergen provocation. PBS was perfused through the nasal cavity for 30 min using a roller pump (perfusion rate 0.5 ml/min) to rinse mucus away from the nose. In the case of topical application, the test substances are added to the perfusate in molar concentration and the solution is perfused through the nose for 30 min before allergen provocation. The plasma marker Evans Blue (1 ml/animal each of a 1% strength solution in PBS) was then injected into the jugular vein. The perfusion was collected during a 15 min break. The allergen provocation (challenge) was then carried out by perfusion of the nasal cavity with a solution of ovalbumin in PBS (10 mg/ml of ovalbumin in PBS) for 60 min, during which the perfusate was collected in the fraction collector in 15 min fractions. The total amount of the samples/animal was 5. The samples were centrifuged and then applied to microtiter plates and measured at a wavelength of 620 nm using the Digiscan photometer. The blank values were automatically subtracted. The course of action over 60 min was calculated using an AUC program. The substance action of the preparation group was calculated in % against vehicle controls.
An increased mucosal permeability after allergen provocation is to be assessed as a sign of the release of messengers such as histamine and leukotrienes. After antigen contact, this phenomenon occurs even in allergic people and is manifested by increased fluid secretion and nasal blockage.

The mark [1] stands for this setting: 0.1 mg/kg i.p., 60 min before allergen provocation.
Where [2] appears, read: 1 mg/kg i.p., 60 min before allergen provocation.

With `COc1ccc2c(c1)c(O)nn2Cc1ccc(OCc2ccc3ccccc3n2)cc1.Cl.Cl` [AWD 23-115, 1-[4-(quinolin-2-ylmethoxy)benzyl]-5-methoxy-1H-indazol-3-ol dihydrochloride], the “dose-dependent inhibition of the vascular permeability” value (dose range of 0.03 to 10 mg/kg i.p.) was 37-54%. In addition, the “Inhibitory action in % (nasal mucosal permeability)” value (“Inhibitory action in %” below) runs as follows: (topical application in the perfusate, 0.1 mmol/l) 12%; (topical application in the perfusate, 0.3 mmol/l) 32%; (topical application in the perfusate, 1 mmol/l) 49%. Also, the “inhibition of the vascular permeability” value reads like this: (topical application, 0.3 μmol/l) 32%; (topical application, 1 μmol/l) 49%.
On to `CN1CCCC(n2nc(Cc3ccc(Cl)cc3)c3ccccc3c2=O)CC1` (centres unmarked) [Azelastine], for which the “Inhibitory action in %” value is reported as 11% (0.01 mg/kg i.p., 60 min before allergen provocation); 39% under setting [1]; 42% (0.3 mg/kg i.p., 60 min before allergen provocation); 47% under setting [2]; 3% (topical application in the perfusate, 0.003 mmol/l); 40% (topical application in the perfusate, 0.01 mmol/l). In addition, under “topical application in the perfusate, 0.03 mmol/l”, the “Inhibitory action in %” value is reported as 60%. Besides, the “inhibition of the mucosal plasma extravasation” value (topical application, concentrations of 0.003 to 0.03 μmol/l) was “strong inhibition”.
With `O=C(O)[C@@H](c1ccc(OCc2ccc3ccccc3n2)cc1)C1CCCC1` [Bay X 1005], under setting [1], the “Inhibitory action in %” value was 31%.
Turning to `CC(C)(O)c1ccccc1CC[C@@H](SCC1(CC(=O)O)CC1)c1cccc(/C=C/c2ccc3ccc(Cl)cc3n2)c1` [Montelukast], the “Inhibitory action in %” value by setting is: under setting [1], 7%; under setting [2], 26%; (3 mg/kg i.p., 60 min before allergen provocation) 39%; (10 mg/kg i.p., 60 min before allergen provocation) 44%; (30 mg/kg i.p., 60 min before allergen provocation) 58%.

Source of the values: US6436924B1, “Antihistamine leukotriene combinations” (ASTA Medica AG, priority 2000, dated 2002).
